The values below are quoted from earlier work in patent US20120245201A1, “Isopropylphenidate for Treatment of Attention-Deficit/Hyperactivity Disorder and Fatigue-Related Disorders and Conditions” (priority 2009, published 2012).

The conditions of data set [1]: metabolite after MPH; cited from earlier work.
The subject of data set [2] is mouse model. Conditions: 5 mg/kg i.p.; cited from earlier work.

As to `O=C(O)C(c1ccccc1)C1CCCCN1` (centres unmarked) [RA, ritalinic acid], in data set [1], the “blood concentrations relative to the parent compound” value was 30-60 times.

Turning to `CCOC(=O)C(c1ccccc1)C1CCCCN1` (stereo not drawn) [d-EPH], the motor activity entry in data set [2] is “significant motor activity”.
